Measurements from patent publication US20180215734A1, “PYRIMIDINE DERIVATIVES AS KINASE INHIBITORS AND THEIR THERAPEUTICAL APPLICATIONS” (NantBioScience, Inc., priority 2016, published 2018).

What was measured:
FGFR1(h) = FGFR1(h) (Homo sapiens, UniProt P11362); assay: Kinase assay, FGFR1(h); type: biochemical
Procedure: (§1) Kinase assay protocols well known to those of ordinary skill in the art were used. Specifically, the buffer composition was as follows: 20 mM MOPS, 1 mM EDTA, 0.01% Brij-35, 5% Glycerol, 0.1% β-mercaptoethanol, 1 mg/mL BSA. Test compounds were initially dissolved in DMSO at the desired concentration, then serially diluted to the kinase assay buffer. In a final reaction volume of 25 μL FGFR1(h) (5-10 mU) and KDR(h) (5-10 mU) are incubated with 8 mM MOPS pH 7.0, 0.2 mM EDTA, 200 μM LRRASLG (Kemptide), 10 mM magnesium acetate and [γ^33P-ATP]. The reaction was initiated by the addition of the MgATP mix. After incubation for 40 minutes at room temperature, the reaction was stopped by addition of 5 μL of a 3% phosphoric acid solution. Ten L of the reaction was then spotted onto a P30 filter mat and washed three times for 5 minutes in 50 mM phosphoric acid and once in methanol prior to drying and scintillation counting. Wells containing substrate but no kinase and wells containing a phosphopeptide control were used to set 0% and 100% phosphorylation value, respectively.
(§2) Of all of the steps in developing a drug, the hardest is finding promising compounds. (See, e.g., Malo et al., “Statistical practice in high-throughput screening data analysis,” Nature Biotechnology, 2006, 24, 167-75.) Kinase inhibitors often also have an anti-proliferative effect. […] The kinase inhibitory activity Compound 19 was tested using the kinase assay described in Example 3. […] These mutations in the tested kinases are thought to play an important role in transformation of some cancers.

KDR(h) = KDR(h) (Homo sapiens, UniProt P35968); assay: Kinase assay, KDR(h); type: biochemical
Procedure: as §1, §2

KG1a = assay: Inhibition of proliferation (CellTiterblue, 72 hr), KG1a; type: cell-based, human
Procedure: (§3) A number of studies were performed to analyze the consequences of tyrosine kinase inhibition in cell lines. To do this, 1000 cells are seeded in 27 μl/well in 384-well microplates, which are then placed in a humidified CO2 incubator at 37° C. overnight. The next day, 3 μl/well of 10× concentrated drug is added and the plates are returned to the incubator for 72 hr. After 72 hr incubation, plates are removed and 6 μl/well CellTiterblue (Promega) viability reagent is added. Plates are returned to the incubator for 3 hrs, after which fluorescence measurements are read on the Victor X3 plate reader (Perkin Elmer). Data are analyzed using Excel (Microsoft), and GI50 values are determined using Prism (Graphpad).

Kato III = assay: Inhibition of proliferation (CellTiterblue, 72 hr), Kato III; type: cell-based; conditions: Homo sapiens, KATO III, 72 h
Procedure: as §3

RT112 = assay: Inhibition of proliferation (CellTiterblue, 72 hr), RT112; type: cell-based; conditions: Homo sapiens, RT-112, 72 h
Procedure: as §3

FGFR1(V561M)(h) = FGFR1(V561M)(h) (Homo sapiens, UniProt P11362, V561M); assay: Kinase assay, FGFR1(V561M)(h); type: biochemical
Procedure: as §1
Of all of the steps in developing a drug, the hardest is finding promising compounds. (See, e.g., Malo et al., “Statistical practice in high-throughput screening data analysis,” Nature Biotechnology, 2006, 24, 167-75.) Kinase inhibitors often also have an anti-proliferative effect. […]

FGFR2(h) = FGFR2(h) (Homo sapiens, UniProt P21802); assay: Kinase assay, FGFR2(h); type: biochemical
FGFR4(h) = FGFR4(h) (Homo sapiens, UniProt P22455); assay: Kinase assay, FGFR4(h); type: biochemical
Flt4(h) = Flt4(h) (Homo sapiens, UniProt P35916); assay: Kinase assay, Flt4(h); type: biochemical
ALK(h) = ALK(h) (Homo sapiens, UniProt Q9UM73); assay: Kinase assay, ALK(h); type: biochemical
Aurora-A (h) = Aurora-A (h) (Homo sapiens, UniProt O14965); assay: Kinase assay, Aurora-A (h); type: biochemical
cSRC(h) = cSRC(h) (Homo sapiens, UniProt P12931); assay: Kinase assay, cSRC(h); type: biochemical
Flt3(h) = Flt3(h) (Homo sapiens, UniProt P36888); assay: Kinase assay, Flt3(h); type: biochemical
MEK1(h) = MEK1(h) (Homo sapiens, UniProt Q02750); assay: Kinase assay, MEK1(h); type: biochemical
Mer(h) = Mer(h) (Homo sapiens, UniProt Q12866); assay: Kinase assay, Mer(h); type: biochemical
Parental BaF3 cells = assay: BaF3 cell model, Parental; type: cell-based; conditions: Mus musculus, read-out: IC5o(nM) Parental
Excerpt: (§4) In FIG. 1 these kinases are from the fibroblast growth factor receptor class of kinases (FGFR1-FGFR4). Compound 19 kinase inhibitory activity FGFR1-FGFR4 are also depicted in Table 5.

FGFR3 = biological target: T1, FGFR3 (Homo sapiens, UniProt P22607); assay: BaF3 cells engineered for expression of FGFR3; type: cell-based; conditions: read-out: IC5o(nM) FGFR3
T1 construct: expressed in transfected cells; host or cells: BaF3
Excerpt: as §4

[1] = Pharmacokinetic profile in rats; type: in vivo; conditions: Rat
Excerpt: Compound 19's pharmacokinetic profile is consistent with Compound 19 being used as a therapeutic agent.

[2] = Metabolic stability, mouse liver microsomes; type: in vitro ADME
[3] = Cellular toxicity, HepG2 cell line; type: cell-based; conditions: human, HepG2 cells
Excerpt: (§5) Table 9 discloses toxicity data for compound 19 from various toxicity tests well known to those of ordinary skill.

[4] = In vivo acute toxicity, MTD; conditions: PO, rat
Excerpt: as §5

CYP450 1A2 = CYP450 1A2 (Homo sapiens, UniProt P05177); assay: CYP450 inhibition, 1A2; type: in vitro ADME
Excerpt: as §5

CYP450 2C8 = CYP450 2C8 (Homo sapiens, UniProt P10632); assay: CYP450 inhibition, 2C8; type: in vitro ADME
Excerpt: as §5

CYP450 2C9 = CYP450 2C9 (Homo sapiens, UniProt P11712); assay: CYP450 inhibition, 2C9; type: in vitro ADME
Excerpt: as §5

CYP450 3A4 = CYP450 3A4 (Homo sapiens, UniProt P08684); assay: CYP450 inhibition, 3A4; type: in vitro ADME
Excerpt: as §5

Sequence of FGFR1(h) (P11362 22-822): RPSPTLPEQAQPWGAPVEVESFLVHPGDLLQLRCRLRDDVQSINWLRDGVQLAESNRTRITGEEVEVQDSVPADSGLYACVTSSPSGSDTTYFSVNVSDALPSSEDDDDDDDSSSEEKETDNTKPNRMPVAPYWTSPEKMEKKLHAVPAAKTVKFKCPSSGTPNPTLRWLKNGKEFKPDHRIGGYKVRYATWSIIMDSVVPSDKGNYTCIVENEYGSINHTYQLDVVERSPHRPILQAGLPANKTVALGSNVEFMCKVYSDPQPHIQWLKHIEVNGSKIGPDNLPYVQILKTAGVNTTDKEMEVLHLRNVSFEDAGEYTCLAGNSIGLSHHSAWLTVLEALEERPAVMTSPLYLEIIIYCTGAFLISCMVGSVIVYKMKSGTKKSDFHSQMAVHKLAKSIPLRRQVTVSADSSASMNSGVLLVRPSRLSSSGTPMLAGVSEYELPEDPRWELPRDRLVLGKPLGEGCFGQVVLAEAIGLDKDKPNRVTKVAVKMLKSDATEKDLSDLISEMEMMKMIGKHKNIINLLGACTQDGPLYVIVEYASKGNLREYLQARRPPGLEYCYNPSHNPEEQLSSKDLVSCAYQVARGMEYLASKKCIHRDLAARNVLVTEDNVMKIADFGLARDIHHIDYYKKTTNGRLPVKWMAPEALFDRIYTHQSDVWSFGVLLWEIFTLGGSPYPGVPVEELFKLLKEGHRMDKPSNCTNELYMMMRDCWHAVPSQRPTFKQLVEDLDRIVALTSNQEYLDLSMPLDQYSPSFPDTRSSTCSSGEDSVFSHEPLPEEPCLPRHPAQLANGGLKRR
Sequence of KDR(h) (P35968 20-1356): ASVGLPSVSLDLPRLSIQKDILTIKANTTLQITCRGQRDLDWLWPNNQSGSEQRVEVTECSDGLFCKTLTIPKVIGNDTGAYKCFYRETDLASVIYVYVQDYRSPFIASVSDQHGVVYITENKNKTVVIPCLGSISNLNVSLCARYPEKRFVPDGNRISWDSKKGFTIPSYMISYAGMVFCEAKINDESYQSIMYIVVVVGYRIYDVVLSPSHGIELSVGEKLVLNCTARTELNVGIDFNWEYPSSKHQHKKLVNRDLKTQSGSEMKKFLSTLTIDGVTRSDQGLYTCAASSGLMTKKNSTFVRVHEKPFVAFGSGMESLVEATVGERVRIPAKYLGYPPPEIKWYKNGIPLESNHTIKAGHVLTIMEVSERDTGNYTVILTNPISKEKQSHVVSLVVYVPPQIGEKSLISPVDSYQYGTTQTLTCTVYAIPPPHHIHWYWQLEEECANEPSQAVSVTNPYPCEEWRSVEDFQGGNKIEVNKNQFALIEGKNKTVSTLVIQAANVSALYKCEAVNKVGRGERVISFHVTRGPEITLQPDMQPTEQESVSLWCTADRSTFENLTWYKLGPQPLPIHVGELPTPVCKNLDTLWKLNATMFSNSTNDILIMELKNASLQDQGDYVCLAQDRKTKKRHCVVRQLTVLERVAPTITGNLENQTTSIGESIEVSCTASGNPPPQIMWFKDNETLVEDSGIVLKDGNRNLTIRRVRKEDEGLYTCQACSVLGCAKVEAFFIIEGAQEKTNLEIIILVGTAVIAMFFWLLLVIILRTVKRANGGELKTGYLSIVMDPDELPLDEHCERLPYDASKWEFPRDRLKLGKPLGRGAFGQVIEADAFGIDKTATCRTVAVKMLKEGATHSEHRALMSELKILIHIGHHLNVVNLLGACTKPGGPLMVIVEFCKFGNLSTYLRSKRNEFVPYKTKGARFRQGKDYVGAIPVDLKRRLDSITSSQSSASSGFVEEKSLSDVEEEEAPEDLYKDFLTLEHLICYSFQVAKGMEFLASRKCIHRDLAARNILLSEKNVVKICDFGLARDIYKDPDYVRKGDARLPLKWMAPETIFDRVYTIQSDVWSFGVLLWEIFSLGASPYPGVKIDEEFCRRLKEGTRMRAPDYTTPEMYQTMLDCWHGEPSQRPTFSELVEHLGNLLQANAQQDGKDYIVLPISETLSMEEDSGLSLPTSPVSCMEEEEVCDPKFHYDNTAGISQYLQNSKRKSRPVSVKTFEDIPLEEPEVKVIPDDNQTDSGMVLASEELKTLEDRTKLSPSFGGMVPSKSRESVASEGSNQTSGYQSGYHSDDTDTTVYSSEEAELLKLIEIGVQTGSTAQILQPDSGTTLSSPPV
Sequence of FGFR1(V561M)(h) (P11362 22-822 V561M): as the sequence (P11362 22-822) above, with V540M counted along it
T1 sequence (P22607 23-806, species assumed): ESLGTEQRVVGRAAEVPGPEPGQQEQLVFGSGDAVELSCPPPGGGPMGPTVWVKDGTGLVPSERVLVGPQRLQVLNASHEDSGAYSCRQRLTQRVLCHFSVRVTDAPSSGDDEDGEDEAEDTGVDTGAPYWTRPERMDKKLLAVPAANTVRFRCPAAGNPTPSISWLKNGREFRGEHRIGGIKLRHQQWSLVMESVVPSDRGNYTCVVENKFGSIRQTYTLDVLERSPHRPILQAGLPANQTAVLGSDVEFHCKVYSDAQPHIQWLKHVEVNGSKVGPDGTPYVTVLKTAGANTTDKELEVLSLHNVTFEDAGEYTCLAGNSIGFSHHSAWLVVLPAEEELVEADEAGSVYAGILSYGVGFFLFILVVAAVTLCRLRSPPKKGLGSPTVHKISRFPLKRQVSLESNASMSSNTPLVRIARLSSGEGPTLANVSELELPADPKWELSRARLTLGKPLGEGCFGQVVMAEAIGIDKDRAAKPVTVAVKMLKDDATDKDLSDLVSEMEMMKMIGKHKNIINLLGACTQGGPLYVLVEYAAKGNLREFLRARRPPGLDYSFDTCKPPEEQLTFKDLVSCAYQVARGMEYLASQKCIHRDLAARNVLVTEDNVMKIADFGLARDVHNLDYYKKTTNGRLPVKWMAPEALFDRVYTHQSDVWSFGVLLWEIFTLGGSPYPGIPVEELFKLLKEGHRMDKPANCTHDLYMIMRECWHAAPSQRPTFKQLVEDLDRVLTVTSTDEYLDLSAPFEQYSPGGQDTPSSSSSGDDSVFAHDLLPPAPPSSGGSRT
Sequence of CYP450 2C9 (P11712 whole entry): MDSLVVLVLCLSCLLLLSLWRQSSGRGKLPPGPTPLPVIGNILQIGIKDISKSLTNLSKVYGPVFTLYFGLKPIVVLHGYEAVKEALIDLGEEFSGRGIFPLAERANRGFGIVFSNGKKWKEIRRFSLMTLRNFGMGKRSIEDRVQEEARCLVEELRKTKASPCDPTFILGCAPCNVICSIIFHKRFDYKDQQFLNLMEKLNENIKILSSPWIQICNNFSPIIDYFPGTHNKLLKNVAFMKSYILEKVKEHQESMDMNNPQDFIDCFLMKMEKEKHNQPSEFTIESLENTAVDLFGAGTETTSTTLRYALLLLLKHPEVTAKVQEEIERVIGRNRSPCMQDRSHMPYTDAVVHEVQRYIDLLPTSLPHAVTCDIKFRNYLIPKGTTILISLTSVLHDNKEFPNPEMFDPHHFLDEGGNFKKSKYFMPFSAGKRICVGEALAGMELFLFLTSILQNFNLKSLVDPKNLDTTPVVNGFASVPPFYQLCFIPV
Sequence of MEK1(h) (Q02750 whole entry): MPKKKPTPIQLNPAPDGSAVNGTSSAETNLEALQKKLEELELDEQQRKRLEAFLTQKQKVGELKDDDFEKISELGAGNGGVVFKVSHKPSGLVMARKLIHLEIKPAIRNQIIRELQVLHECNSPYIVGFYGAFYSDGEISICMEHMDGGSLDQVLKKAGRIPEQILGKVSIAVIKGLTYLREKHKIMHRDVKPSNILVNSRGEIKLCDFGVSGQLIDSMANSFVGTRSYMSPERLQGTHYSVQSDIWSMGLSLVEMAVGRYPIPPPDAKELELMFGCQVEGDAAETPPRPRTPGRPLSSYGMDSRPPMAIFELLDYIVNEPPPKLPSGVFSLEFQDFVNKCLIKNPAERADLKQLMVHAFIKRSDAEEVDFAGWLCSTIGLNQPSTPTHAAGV
Sequence of Flt3(h) (P36888 27-993): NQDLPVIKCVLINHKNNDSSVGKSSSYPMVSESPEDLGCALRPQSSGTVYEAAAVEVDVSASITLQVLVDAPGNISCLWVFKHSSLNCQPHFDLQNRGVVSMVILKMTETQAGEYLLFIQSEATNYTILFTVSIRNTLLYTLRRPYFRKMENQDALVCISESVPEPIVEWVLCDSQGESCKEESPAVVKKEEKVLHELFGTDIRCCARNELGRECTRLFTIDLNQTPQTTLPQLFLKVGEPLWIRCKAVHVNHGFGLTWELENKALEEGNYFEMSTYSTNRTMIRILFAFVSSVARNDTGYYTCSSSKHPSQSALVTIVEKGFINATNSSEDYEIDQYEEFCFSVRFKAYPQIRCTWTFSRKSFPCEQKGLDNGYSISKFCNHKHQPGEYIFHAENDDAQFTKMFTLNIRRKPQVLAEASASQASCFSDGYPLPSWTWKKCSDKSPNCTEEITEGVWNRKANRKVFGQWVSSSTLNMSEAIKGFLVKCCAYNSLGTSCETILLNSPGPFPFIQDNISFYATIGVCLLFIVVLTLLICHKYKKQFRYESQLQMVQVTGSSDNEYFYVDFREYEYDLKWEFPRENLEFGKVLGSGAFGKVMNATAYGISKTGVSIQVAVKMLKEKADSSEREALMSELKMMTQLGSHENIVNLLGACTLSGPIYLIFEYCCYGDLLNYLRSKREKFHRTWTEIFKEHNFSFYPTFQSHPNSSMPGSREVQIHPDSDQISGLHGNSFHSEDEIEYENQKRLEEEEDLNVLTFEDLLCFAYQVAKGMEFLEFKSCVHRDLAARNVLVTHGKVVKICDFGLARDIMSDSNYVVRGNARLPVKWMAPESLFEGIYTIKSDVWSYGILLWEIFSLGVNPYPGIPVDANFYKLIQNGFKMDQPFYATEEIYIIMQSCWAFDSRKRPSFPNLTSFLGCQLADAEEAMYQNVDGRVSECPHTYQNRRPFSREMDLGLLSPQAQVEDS

Cc1cc2c(F)c(Oc3ncnc(Nc4ccc(N5C[C@@H](C)N[C@@H](C)C5)cc4)c3C#N)cc(F)c2[nH]1 [Compound 19]
IC50 (FGFR1(h)): 0.9 nM
inhibition at 1 µM (FGFR1(h); 1 μM): 100%
IC50 (KDR(h)): 485 nM
inhibition at 1 µM (KDR(h)): 86%
GI50 (KG1a; Homo sapiens, KG-1a, 72 hr): 0.2 nM
Anti-proliferation activity in KG1a (in words) (KG1a; proliferation assay of Example 2): especially effective
GI50 (Kato III): 79 nM
GI50 (RT112): 66 nM
IC50 (FGFR1(V561M)(h)): 134 nM
IC50 (FGFR2(h)): 11 nM
IC50 (FGFR4(h)): 12 nM
IC50 (Flt4(h)): 116 nM
IC50 (ALK(h)): > 1000 nM
IC50 (Aurora-A (h)): > 1000 nM
IC50 (cSRC(h)): > 1000 nM
IC50 (Flt3(h)): > 1000 nM
IC50 (MEK1(h)): > 1000 nM
IC50 (Mer(h)): > 1000 nM
IC50 (Parental BaF3 cells): 1890 nM
IC50 (FGFR3): 32.6 nM
Oral Bioavailability (% F) ([1]; PO 5 mg/Kg): 76 % F
clearance ([1]; in vivo, IV 1 mg/Kg): 17.6 mL/min/kg
half-life ([1]; in vivo, IV 1 mg/Kg, read-out: Terminal Half Life (converted)): 6.81 h
Vd ([1]; in vivo, IV 1 mg/Kg, read-out: Vz): 9.54 L/kg
half-life [2]: > 1 h
CC50 [3]: 1900 nM
MTD [4]: 100 mg/kg
IC50 (CYP450 1A2): 72000 nM
IC50 (CYP450 2C8): 10600 nM
IC50 (CYP450 2C9): 32900 nM
IC50 (CYP450 3A4): 67300 nM
